Measurements: US8007782B2, “Combination bacteriolytic therapy for the treatment of tumors” (priority 2003, dated 2011)
Where a SMILES comes first, the peptide text is derived from it. [ ]: non-standard residue; d: D form. The star is where a group is joined. Dolaproine = CO[C@@H]([C@@H]1CCCN1)[C@@H](C)C(=O)O; Dil = CC[C@H](C)[C@H](NC)[C@@H](CC(=O)O)OC; NMe2Val = CC(C)[C@@H](C(=O)*)N(C)C

How the values were obtained:
[1] = test system: HCT116 human colorectal cancer cells; test: Tumorigenicity assay, HCT116 xenografts in nude mice; assay type: in vivo; conditions: for Effect with C. novyi-NT / Effect alone: nude mice; for Effect alone: agent alone
Source text: (§1) All animal protocols were designed in accordance with the Guide for the Care and Use of Laboratory Animals (NIH Publication 86-23) and were approved by the Johns Hopkins University Institutional Animal Care and Use Committee. Six to eight week old mice were implanted subcutaneously on one flank with 3 to 6 million cancer cells. Establishment of tumors of 150 to 500 mm3 took 8 to 21 days, depending on the cell type. C. novyi-NT spores (300×106) and anti-microtubule agents were generally administered by a single intravenous injection through the tail vein in a total volume of 300 to 500 ul phosphate-buffered saline (PBS). Quantitative assessment of tumor growth was performed by measuring subcutaneous tumor grafts (major and minor axis) using electronic calipers. Tumor volume was calculated using the equation: length×width2×0.5. Progression free survival was defined as the length of time following treatment before any increase in tumor volume was observed. Mice were considered “cured” if no tumor was evident three months after treatment. Animals were weighed at least twice a week and carefully observed for signs of toxicity every day for the first week following treatment and then twice a week thereafter. At least five mice were used for each treatment arm described in the Experimental Results.
The timing, route, and dose of agents are critical for the success of any experimental therapy. When two agents are combined, the number of variables that must be tested increases exponentially. To simplify interpretation of the comparisons between various anti-microtubule agents, pilot studies with representative drugs were performed.
Eighteen agents known to interact with microtubules were each tested in this manner in nude mice harboring xenografts of HCT116 human colorectal cancer cells. At least five mice harboring tumors of 150 to 500 mm3 in size were used for each experimental arm. Two classes of responses were noted. One type of response was characterized by a rapid hemorrhagic necrosis, observed only with agents that inhibited microtubule […] (FIG. 1A, B). The other type of response was characterized by a slow regression, observed with agents that stabilized microtubules (FIG. 2A, B).

[2] = test system: HCT116, HuCC-T1, HT-29, SW480, B16 and DLD-1 tumors; test: Low dose HTI-286 and L-NNA on various xenografts (FIG. 10); assay type: in vivo, mice; conditions: HTI-286 1 mg/kg without L-NNA; L-NNA 10 mg/kg without HTI-286
Source text: FIG. 10A-10F Quantification of the effects of C. novyi-NT plus low doses of HTI-286 and L-NNA on various xenografts (HCT116, HuCC-T1, HT-29, SW480, B16, and DLD-1, respectively).
[…] […] The p-values are based on comparisons between L-NNA+HTI-286 and L-NNA+HTI-286+C. novyi-NT spores. The p-value is indicated only when the result was statistically significant.
All animal protocols were designed in accordance with the Guide for the Care and Use of Laboratory Animals (NIH Publication 86-23) and were approved by the Johns Hopkins University Institutional Animal Care and Use Committee. Six to eight week old mice were implanted subcutaneously on one flank with 3 to 6 million cancer cells. Establishment of tumors of 150 to 500 mm3 took 8 to 21 days, depending on the cell type. C. novyi-NT spores (300×106) and anti-microtubule agents were generally administered by a single intravenous injection through the tail vein in a total volume of 300 to 500 ul phosphate-buffered saline (PBS). Quantitative assessment of tumor growth was performed by measuring subcutaneous tumor grafts (major and minor axis) using electronic calipers. Tumor volume was calculated using the equation: length×width2×0.5. Progression free survival was defined as the length of time following treatment before any increase in tumor volume was observed. Mice were considered “cured” if no tumor was evident three months after treatment. […]

[3] = Weight loss after COBALT; assay type: in vivo, nude mice; conditions: drug dose 24.0 mg/kg; maximum average weight loss relative to weight one day prior to treatment; HCT116 xenografts
Source text: as §1
(§2) This toxicity was observed only when the combination of C. novyi-NT spores and the drugs was administered and not with either the bacteria or the drugs alone. […] Though major tumor regressions were common, few mice died as a result of therapy (Table 2) No deaths occurred after treatment with the microtubule stabilizers plus C. novyi-NT, while 4% to 8% of mice treated with microtubule destabilizers plus C. novyi-NT died. The only other toxicity observed was transient weight loss (Table 3). Mice treated with the drugs alone lost ˜5 to 10% of their body weight within 7 days, while weight loss after treatment with C. novyi-NT plus these drugs varied from 8% to 18%. All weights recovered to pre-treatment levels within two weeks.

[4] = Mortality following COBALT; assay type: in vivo, nude mice; conditions: deaths within one week, pooled xenograft models
Source text: as §1, §2

[5] = 15 mg/kg × 1 (iv) with 3×108 C. novyi-NT spores iv
[6] = 5 mg/kg × 1 (ip) with 3×108 C. novyi-NT spores iv
[7] = 10 mg/kg × 1 (ip) with 3×108 C. novyi-NT spores iv
[8] = 20 mg/kg × 1 (iv) with 3×108 C. novyi-NT spores iv

Compound: C=CC=CC(C)C(OC(N)=O)C(C)C(O)C(C)CC=CC(C)C(O)C(C)C=CC(O)CC1OC(=O)C(C)C(O)C1C (single isomer, unassigned; (+)) [(+)-14-normethyldiscodermolide]
- Effect with C. novyi-NT [1, 5]: +
- Effect alone ([1]; 15 mg/kg × 1 (iv)): +

Compound: O=C(Nc1ccncc1)C(=O)c1cn(Cc2ccc(Cl)cc2)c2ccccc12 [D-24851]
- Effect with C. novyi-NT ([1]; 25 mg/kg × 1 (ip) with 3×108 C. novyi-NT spores iv): +
- Effect with C. novyi-NT ([1]; 100 mg/kg × 1 (ip) with 3×108 C. novyi-NT spores iv): +
- Effect alone ([1]; 25 mg/kg × 1 (ip)): 0
- Effect alone ([1]; 100 mg/kg × 1 (ip)): 0

Compound: NC(=NCCC[C@H](N)C(=O)O)N[N+](=O)[O-] [L-NNA]
- effect of L-NNA added to C. novyi-NT alone or high doses of HTI-286 plus C. novyi-NT [1]: added little
- effect of L-NNA on responses to low doses of HTI-286 ([1]; L-NNA 10 mg/kg): significantly enhanced
- effects on tumor growth when administered without the other agent [2]: no significant effects on tumor growth

Compound: CC[C@H](C)[C@@H]([C@@H](CC(=O)N1CCC[C@H]1[C@H](OC)[C@@H](C)C(=O)NCCc1ccccc1)OC)N(C)C(=O)[C@@H](NC(=O)[C@H](C(C)C)N(C)C)C(C)C [auristatin PE]
- Effect with C. novyi-NT ([1]; 2 (2.0) mg/kg × 1 (iv) with 3×108 C. novyi-NT spores iv): +
- Effect alone ([1]; 2 (2.0) mg/kg × 1 (iv)): 0

Compound: CC[C@H](C)[C@@H]([C@@H](CC(=O)N1CCC[C@H]1[C@H](OC)[C@@H](C)C(=O)N[C@@H](Cc1ccccc1)C(=O)OC)OC)N(C)C(=O)[C@@H](NC(=O)[C@H](C(C)C)N(C)C)C(C)C [auristatin PHE] (NMe2Val-V[Dil][Dolaproine]F-OMe)
- Effect with C. novyi-NT ([1]; 0.2 mg/kg × 1 (iv) with 3×108 C. novyi-NT spores iv): +
- Effect alone ([1]; 0.2 mg/kg × 1 (iv)): 0

Compound: COc1cc2c(c(OC)c1OC)-c1ccc(OC)c(=O)cc1[C@@H](NC(C)=O)CC2 [colchicine]
- Effect with C. novyi-NT [1, 6]: +
- Effect with C. novyi-NT [1, 7]: +
- Effect with C. novyi-NT ([1]; 20 mg/kg × 1 (ip) with 3×108 C. novyi-NT spores iv): ++ (10% to 50% shrinkage in tumor volume relative to pre-treatment size)
- Effect alone ([1]; 5 mg/kg × 1 (ip)): +
- Effect alone ([1]; 10 mg/kg × 1 (ip)): +
- Effect alone ([1]; 20 mg/kg × 1 (ip)): ++ (10% to 50% shrinkage in tumor volume relative to pre-treatment size)

Compound: COc1ccc(/C=C\c2cc(OC)c(OC)c(OC)c2)cc1OP(=O)(O)O [combretastatin A4P]
- Effect with C. novyi-NT ([1]; 50 mg/kg × 1 (ip) with 3×108 C. novyi-NT spores iv): +
- Effect with C. novyi-NT ([1]; 200 mg/kg × 1 (ip) with 3×108 C. novyi-NT spores iv): +
- Effect alone ([1]; 50 mg/kg × 1 (ip)): 0
- Effect alone ([1]; 200 mg/kg × 1 (ip)): +

Compound: C=C/C=C\[C@H](C)[C@H](OC(N)=O)[C@@H](C)[C@H](O)[C@@H](C)C/C(C)=C\[C@H](C)[C@@H](O)[C@@H](C)/C=C\[C@@H](O)C[C@@H]1OC(=O)[C@H](C)[C@@H](O)[C@H]1C [discodermolide]
- Effect with C. novyi-NT [1, 5]: ++++ (>20% cures)
- Effect with C. novyi-NT [1, 8]: ++++ (>20% cures)
- Effect alone ([1]; 15 mg/kg × 1 (iv)): ++ (10% to 50% shrinkage in tumor volume relative to pre-treatment size)
- Effect alone ([1]; 20 mg/kg × 1 (iv)): ++ (10% to 50% shrinkage in tumor volume relative to pre-treatment size)

Compound: CC[C@H](C)[C@@H]([C@@H](CC(=O)N1CCC[C@H]1[C@H](OC)[C@@H](C)C(=O)N[C@@H](Cc1ccccc1)c1nccs1)OC)N(C)C(=O)[C@@H](NC(=O)[C@H](C(C)C)N(C)C)C(C)C [dolastatin 10]
- Effect with C. novyi-NT ([1]; 0.30 mg/kg × 1 (iv) with 3×108 C. novyi-NT spores iv): +++ (>50% shrinkage in tumor volume relative to pre-treatment size)
- Effect with C. novyi-NT ([1]; 0.45 mg/kg × 1 (iv) with 3×108 C. novyi-NT spores iv): +++ (>50% shrinkage in tumor volume relative to pre-treatment size)
- Effect alone ([1]; 0.30 mg/kg × 1 (iv)): 0
- Effect alone ([1]; 0.45 mg/kg × 1 (iv)): 0

Compound: C/C(=C\c1csc(C)n1)[C@@H]1C[C@@H]2O[C@]2(C)CCC[C@H](C)[C@H](O)[C@@H](C)C(=O)C(C)(C)[C@@H](O)CC(=O)O1 [epothilone B]
- Effect with C. novyi-NT ([1]; 25 mg/kg QD × 4 (ip) with 3×108 C. novyi-NT spores): +

Compound: COc1ccc2c(c1OC)C(=O)O[C@@H]2[C@H]1c2c(cc3c(c2OC)OCO3)CCN1C [noscapine]
- Effect with C. novyi-NT ([1]; 50 mg/kg × 1 (iv) with 3×108 C. novyi-NT spores iv): +
- Effect with C. novyi-NT ([1]; 70 mg/kg × 1 (iv) with 3×108 C. novyi-NT spores iv): +
- Effect alone ([1]; 50 mg/kg × 1 (iv)): 0
- Effect alone ([1]; 70 mg/kg × 1 (iv)): 0

Compound: CC(=O)O[C@H]1C(=O)[C@@]2(C)[C@H]([C@H](OC(=O)c3ccccc3)[C@]3(O)C[C@H](OC(=O)[C@H](O)[C@@H](NC(=O)c4ccccc4)c4ccccc4)C(C)=C1C3(C)C)[C@]1(OC(C)=O)CO[C@@H]1C[C@@H]2O [paclitaxel]
- Effect with C. novyi-NT [1, 5]: 0
- Effect with C. novyi-NT ([1]; 30 mg/kg × 1 (iv) with 3×108 C. novyi-NT spores iv): +
- Effect alone ([1]; 15 mg/kg × 1 (iv)): 0
- Effect alone ([1]; 30 mg/kg × 1 (iv)): 0

Compound: CC[C@]1(O)C[C@@H]2CN(CCc3c([nH]c4ccccc34)[C@@](C(=O)OC)(c3cc4c(cc3OC)N(C)[C@H]3[C@@](O)(C(=O)OC)[C@H](OC(C)=O)[C@]5(CC)C=CCN6CC[C@]43[C@@H]65)C2)C1 [vinblastine]
- Effect with C. novyi-NT [1, 6]: 0
- Effect with C. novyi-NT [1, 7]: +
- Effect alone ([1]; 5 mg/kg × 1 (ip)): 0
- Effect alone ([1]; 10 mg/kg × 1 (ip)): +

Compound: CC[C@]1(O)C[C@H]2CN(CCc3c([nH]c4ccccc34)[C@@](C(=O)OC)(c3cc4c(cc3OC)N(C=O)[C@H]3[C@@](O)(C(=O)OC)[C@H](OC(C)=O)[C@]5(CC)C=CCN6CC[C@]43[C@@H]65)C2)C1 [vincristine]
- Effect with C. novyi-NT [1, 6]: 0
- Effect with C. novyi-NT [1, 7]: +
- Effect alone ([1]; 5 mg/kg × 1 (ip)): 0
- Effect alone ([1]; 10 mg/kg × 1 (ip)): 0

Compound: CCC1=C[C@@H]2CN(C1)Cc1c([nH]c3ccccc13)[C@@](C(=O)OC)(c1cc3c(cc1OC)N(C)[C@H]1[C@@](O)(C(=O)OC)[C@H](OC(C)=O)[C@]4(CC)C=CCN5CC[C@]31[C@@H]54)C2 [vinorelbine]
- Effect with C. novyi-NT ([1]; 16 mg/kg × 1 (iv) with 3×108 C. novyi-NT spores iv): ++ (10% to 50% shrinkage in tumor volume relative to pre-treatment size)
- Effect with C. novyi-NT [1, 8]: +++ (>50% shrinkage in tumor volume relative to pre-treatment size)
- Effect with C. novyi-NT ([1]; 24 mg/kg × 1 (iv) with 3×108 C. novyi-NT spores iv): +++ (>50% shrinkage in tumor volume relative to pre-treatment size)
- Effect alone ([1]; 16 mg/kg × 1 (iv)): +
- Effect alone ([1]; 20 mg/kg × 1 (iv)): +
- Effect alone ([1]; 24 mg/kg × 1 (iv)): +
- Weight Loss (%) [3]: 8.3%
- # dead (treatment-related deaths) ([4]; drug dose 16.0 mg/kg): 0
- # dead (treatment-related deaths) ([4]; drug dose 20.0 mg/kg): 0
- # dead (treatment-related deaths) ([4]; drug dose 24.0 mg/kg): 0

Compound: arsenic trioxide
- Effect with C. novyi-NT [1, 7]: +
- Effect alone ([1]; 10 mg/kg × 1 (ip)): 0
